This is an account of results in patent US12275733B2, “Substituted pyrido[3,4-b]indoles for the treatment of cartilage disorders” (Sanofi, priority 2016, dated 2025).

In one assay the test system is ATDC5 cells. Nature of the assay: Chondrogenesis activity assay in ATDC5 cells (collagen type II induction, immunofluorescence). Format: cell-based, mouse. The settings on record: Mus musculus; for EC50: collagen type II induction in ATDC5 cells, concentration reaching 50% of maximum induction; for Emax: maximum percent induction of collagen type II relative to internal reference compound at 10 μM, ATDC5 cells. In outline: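 Mouse ATDC5 cells in insulin (10 μg/ml)-containing DMEM/F12 differentiation medium with 5% FCS were exposed to compound, typically 40 nM–10 μM at 0.1% DMSO, for 4 days at 37 °C. Intracellular collagen type II was quantified by Alexa Fluor 488 immunostaining with high-content imaging, relative to DMSO and a 10 μM reference compound.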

Assay [1] concerns primary human chondrocyte pellet cultures. Nature of the assay: Chondrogenesis activity assay in primary human chondrocyte pellet cultures (proteoglycan (aggrecan) induction, Blyscan assay). Format: cell-based. The settings on record: for EC50: 336 h, proteoglycan (aggrecan) induction, primary human chondrocyte pellets, 2 weeks culture; for Emax: Homo sapiens, Chondrocyte, maximum percent proteoglycan (aggrecan) induction relative to the internal reference compound at 10 μM. Here is the method:
B) Chondrogenesis Activity Assay in Primary Human Chondrocyte Pellet Cultures
In this assay human articular chondrocytes are harvested by enzymatic digestion from articular cartilage and passaged several times to dedifferentiate the chondrocytes and to propagate the cells. Cells are cultured as cell pellets in the presence of the compounds of the invention over 2 weeks, and the chondrogenic differentiation is quantified by the production of the chondrogenic marker aggrecan (proteoglycan).
In detail, primary chondrocytes were harvested by enzymatic digestion from cartilage of osteoarthritis patients undergoing knee joint replacement surgery, and cultured in vitro. Cells were passaged one or two times and aliquots were cryopreserved. To initiate chondrogenesis experiments, cell aliquots were thawn, cultured in Chondrocyte Growth Medium (CGM, Lonza, #CC-3216) and passaged twice to further propagate and dedifferentiate cells. Pellet cultures were initiated by seeding 2.5×10E5 cells per well into a 96-well deep well plate in 600 μl chondrocyte differentiation medium consisting of Dulbecco's Modified Eagle Medium (DMEM, Invitrogen, #41966), 1×ITS-solution (Insulin/Transferrin/sodium selenite; 100× solution: Invitrogen, #51500056), 5 μg/mL linoleic acid (Sigma, #L1012-1G), 1× nonessential amino acids (100× solution: Invitrogen, #11140); 10 nM Dexamethasone, 2 ng/ml TGF-β1 (transforming growth factor β1) and 10 μg/ml ascorbic acid. Cells were spun to pellets by centrifugation (10 min, 400×g). Test compounds dissolved in DMSO were added to yield increasing compound concentrations, typically from 40 nM to 10 μM, and a final DMSO concentration of 0.1%, and the cell pellets cultured at 37° C., and 5% CO2 for 2 weeks. On each 96-well plate, control wells containing no test compound but the same concentration of DMSO, i.e. untreated cells, were included and used as reference for the determination of the effect of the test compounds on the cells, and wells containing an internal reference compound at a concentration of 10 μM were included and used as positive control and for standardizing the results. Chondrocyte differentiation medium and the compounds were exchanged twice weekly until harvest of the pellets.
For harvest of the pellets, medium was removed and the pellet was homogenized by enzymatic digestion. 100 μl of protease solution containing 0.4 mg/ml papain, 50 mM sodium phosphate, 4 mM EDTA and 0.48 mg/ml L-cysteine was added to the pellet in each well of a 96-well plate, the plate was sealed with a plate sealer foil (SILVERseal, Greiner Bio-One) and incubated for 4 to 6 hours at 65° C. with agitation.
The concentration of proteoglycan (aggrecan) was determined by quantification of the sulfated glycosaminoglycan side chains of aggrecan using the Blyscan assay (Kit from Biocolor). Aliquots of the papain-digest were transferred to 400 μl of Blyscan dye solution and incubated at room temperature for 45 min with agitation (1200 rpm). The mixture was centrifuged at 3760×g for 45 min, the supernatant was discarded, and the stained pellet was redissolved in 400 μl of Blyscan dissociation reagent by rotation until the precipitate completely resolved. Optical density was measured at 656 nm using a Tecan Saphire2 instrument, and the amount of proteoglycan determined against a standard curve with chondroitin-4-sulfate.
Induction of proteoglycan (aggrecan) was calculated for each compound concentration relative to the control (untreated cells, i.e. no test compound added), and an EC50 value (effective concentration 50 (in μM (micromollliter)), i.e. the compound concentration at which the effect of the compound on proteoglycan (aggrecan) induction reaches 50% of the maximum induction) was calculated using a sigmoidal signal fit procedure. […]

`COCc1cc(-c2cc(Cl)cc3c2[nH]c2c(C)nccc23)ccc1OC` [Example 200, 6-Chloro-8-(4-methoxy-3-methoxymethyl-phenyl)-1-methyl-9H-pyrido[3,4-b]indole]: in the assay with ATDC5 cells, the EC50 was more than 10 µM and the Emax was in the range of 20 to 50%. In assay [1], this compound came in with an EC50 of 4.4 µM and an Emax of 100 to 200%.

On to `COc1ccc(-c2cc(Cl)cc3c2[nH]c2c(C)nccc23)cc1Cl` [Example 206, 6-Chloro-8-(3-chloro-4-methoxy-phenyl)-1-methyl-9H-pyrido[3,4-b]indole], for which the results for the EC50 (with ATDC5 cells; in assay [1]) were more than 10 µM and 19 µM, respectively. Further, the Emax in the assay on ATDC5 cells is 20 to 50%; in assay [1], less than 40%.

In the assay with ATDC5 cells, `CCn1c2c(-c3cnn(C)c3)cc(Br)cc2c2ccnc(C)c21` [Example 209, 6-Bromo-9-ethyl-1-methyl-8-(1-methyl-1H-pyrazol-4-yl)-9H-pyrido[3,4-b]indole] had an EC50 of 0.28 µM and an Emax of more than 80%. In assay [1], this compound yielded an EC50 of 2.6 µM and an Emax of more than 200%.

In the assay on ATDC5 cells, `CCc1cc2c([nH]c3c(-c4ccc(OCCn5cccn5)cc4)cc(Br)cc32)c(C)n1` [Example 212, 6-Bromo-3-ethyl-1-methyl-8-[4-(2-pyrazol-1-yl-ethoxy)-phenyl]-9H-pyrido[3,4-b]indole] displayed an EC50 of more than 3.3 µM and an Emax of less than 20%. Moreover, in assay [1], the EC50 turned out to be 8.9 µM and the maximum response (Emax) was less than 40%.

For the compound `Cc1nccc2c1[nH]c1c(-c3ccnc(N4CCNCC4)c3)cc(Cl)cc12` [Example 213, 6-Chloro-1-methyl-8-(2-piperazin-1-yl-pyridin-4-yl)-9H-pyrido[3,4-b]indole], the EC50 is more than 1.1 µM in the assay with ATDC5 cells and 1.2 µM in assay [1]. The Emax in the assay with ATDC5 cells was less than 20%; in assay [1], 100 to 200%.

`Cc1nccc2c1[nH]c1c(-c3ccnc(N4CCN(C)CC4)c3)cc(Cl)cc12` [Example 214, 6-Chloro-1-methyl-8-[2-(4-methyl-piperazin-1-yl)-pyridin-4-yl]-9H-pyrido[3,4-b]indole]: in the assay with ATDC5 cells, the concentration for a half-maximal effect (EC50) is more than 3.3 µM and the Emax is less than 20%. In assay [1], the response was half-maximal at 1.3 µM (EC50) and the Emax lay within 100 to 200%.

Regarding `CCc1cc2c3cc(Br)cc(-c4cnn(C)c4)c3n(CC)c2c(C)n1` [Example 216, 6-Bromo-3,9-diethyl-1-methyl-8-(1-methyl-1H-pyrazol-4-yl)-9H-pyrido[3,4-b]indole], the EC50 in the assay on ATDC5 cells was more than 10 µM; in assay [1], 0.99 µM. Further, the Emax in the assay with ATDC5 cells was less than 20%; in assay [1] it was more than 200%.

As for `COc1ccc(-c2cc(Br)cc3c2[nH]c2c(C)nc(C)cc23)cc1` [Example 217, 6-Bromo-8-(4-methoxy-phenyl)-1,3-dimethyl-9H-pyrido[3,4-b]indole], the EC50 is more than 3.3 µM in the assay with ATDC5 cells and 4.9 µM in assay [1]. The Emax with ATDC5 cells is 20 to 50%; in assay [1], more than 200%.

On to `COc1ccc(-c2cc(Cl)cc3c2[nH]c2c(C)nccc23)nc1N` [Example 218, 6-(6-Chloro-1-methyl-9H-pyrido[3,4-b]indol-8-yl)-3-methoxy-pyridin-2-ylamine], for which, in the assay on ATDC5 cells, the EC50 was more than 1.1 µM and the Emax was less than 20%. In assay [1], this compound returned an EC50 of 40 µM and an Emax of less than 40%.

For `COc1cc(-c2cc(Cl)cc3c2[nH]c2c(C)nccc23)ccc1OCc1cccc(F)n1` [Example 223, 6-Chloro-8-[4-(6-fluoro-pyridin-2-ylmethoxy)-3-methoxy-phenyl]-1-methyl-9H-pyrido[3,4-b]indole], the EC50 is more than 3.3 µM with ATDC5 cells and 27 µM in assay [1]. Besides, the figures for the Emax (with ATDC5 cells; in assay [1]) were 20 to 50% and less than 40%, respectively.

In the case of `Cc1nccc2c1[nH]c1c(-c3ccc(OCC4CCN(C)C4)cc3)cc(Cl)cc12` (centres unmarked) [Example 228, 6-Chloro-1-methyl-8-[4-(1-methyl-pyrrolidin-3-ylmethoxy)-phenyl]-9H-pyrido[3,4-b]indole], in the assay with ATDC5 cells, the EC50 worked out at 0.15 µM and the maximal response (Emax) was in the range of 50 to 80%. In assay [1], the midpoint of the response, the EC50, lay at 0.14 µM and the Emax was in the range of 100 to 200%.

On to `Cc1nccc2c1[nH]c1c(-c3cccc(NC(=O)Nc4ccc(F)cc4F)c3)cc(Cl)cc12` [Example 230, 1-[3-(6-Chloro-1-methyl-9H-pyrido[3,4-b]indol-8-yl)-phenyl]-3-(2,4-difluoro-phenyl)-urea], for which the EC50 in the assay on ATDC5 cells was more than 3.3 µM; in assay [1], 21 µM. Also, the Emax with ATDC5 cells was less than 20%; in assay [1], less than 40%.

Take `Cc1nccc2c1[nH]c1c(-c3ccc4c(c3)CC(C)(C)O4)cc(Cl)cc12` [Example 236, 6-Chloro-8-(2,2-dimethyl-2,3-dihydro-benzofuran-5-yl)-1-methyl-9H-pyrido[3,4-b]indole]: the values for the EC50 (with ATDC5 cells; in assay [1]) were more than 3.3 µM and 4.6 µM, respectively. Besides, the Emax in the assay on ATDC5 cells was less than 20%; in assay [1], more than 200%.

In the assay with ATDC5 cells, `Cc1nccc2c1[nH]c1c(-c3ccc(CN)cc3)cc(Cl)cc12` [Example 241, 4-(6-Chloro-1-methyl-9H-pyrido[3,4-b]indol-8-yl)-benzylamine] gave an EC50 of more than 1.1 µM and an Emax of 20 to 50%. In assay [1], the EC50 was 1.5 µM and the Emax was 100 to 200%.

In the case of `CCn1c2c(-c3cnn(Cc4ccccn4)c3)cc(Cl)cc2c2ccnc(C)c21` [Example 244, 6-Chloro-9-ethyl-1-methyl-8-(1-pyridin-2-ylmethyl-1H-pyrazol-4-yl)-9H-pyrido[3,4-b]indole], in the assay with ATDC5 cells, the EC50 was determined as 1.1 µM and the Emax is more than 80%. In assay [1], this compound displayed an EC50 of 4.9 µM and an Emax of more than 200%.

In the assay with ATDC5 cells, `Cc1nccc2c1[nH]c1c(-c3ccnc(F)c3Br)cc(Cl)cc12` [Example 245, 8-(3-Bromo-2-fluoro-pyridin-4-yl)-6-chloro-1-methyl-9H-pyrido[3,4-b]indole] returned an EC50 of more than 1.1 µM and an Emax of less than 20%. For the same compound, in assay [1], the response was half-maximal at 10 µM (EC50) and the Emax was 40 to 100%.

Regarding `Cc1nccc2c1[nH]c1c(-c3cccc(N4CCOCC4)c3)cc(Cl)cc12` [Example 247, 6-Chloro-1-mehtyl-8-(3-morpholin-4-yl-phenyl)-9H-pyrido[3,4-b]indole], the results for the EC50 (with ATDC5 cells; in assay [1]) were more than 3.3 µM and 3.8 µM, respectively. Also, the Emax in the assay on ATDC5 cells is less than 20%; in assay [1], more than 200%.

With `Cc1nccc2c1[nH]c1c(-c3cccc(C=O)c3)cc(Cl)cc12` [Example 250, 3-(6-Chloro-1-methyl-9H-pyrido[3,4-b]indol-8-yl)-benzaldehyde], in the assay with ATDC5 cells, the concentration for a half-maximal effect (EC50) is more than 3.3 µM and the Emax was 50 to 80%. Further, in assay [1], the EC50 came out at 4.9 µM and the Emax fell in the range of 100 to 200%.

As for `Cc1nccc2c1[nH]c1c(-c3cc(C(F)(F)F)cc(C(F)(F)F)c3)cc(Cl)cc12` [Example 251, 8-(3,5-Bis-trifluoromethyl-phenyl)-6-chloro-1-methyl-9H-pyrido[3,4-b]indole], the EC50 was more than 10 µM with ATDC5 cells and 9.1 µM in assay [1]. Also, the Emax was less than 20% in the assay on ATDC5 cells and 40 to 100% in assay [1].

For `CCn1c2c(-c3ccc(OCC4(C)COC4)cc3)cc(Cl)cc2c2ccnc(C)c21` [Example 256, 6-Chloro-9-ethyl-1-methyl-8-[4-(3-methyl-oxetan-3-ylmethoxy)-phenyl]-9H-pyrido[3,4-b]indole], the EC50 in the assay with ATDC5 cells is 0.16 µM; in assay [1], 1.3 µM. In addition, the Emax in the assay on ATDC5 cells is more than 80%; in assay [1], more than 200%.
